# According to US10273313B2, “Multimeric mannosides, a process for preparing the same and their uses as a drug” (CENTRE NATIONAL DE LA RECHERCHE SCIENTIFIQUE, priority 2012, dated 2019):
# Where two headings read alike, the source gives them in different places.
# Columns and labels:
# [1] = tested on: type-1 piliated clinical E. coli isolate UTI89; experiment: Haemagglutination inhibition assay (HIA), guinea pig erythrocytes; type: cell-based, Escherichia coli; details: read-out: Minimal inhibitory concentration (MIC) on haemagglutination
# Method: Haemagglutination is observed as the red blood cells being held in suspension through the formation of a space-filling cross-linked network with the fimbriated bacteria.
# The UIT89 clinical isolate was grown statically 37° C. for 48 hours in LB medium and analysed for haemagglutination of guinea pig red blood cells. Both bacteria and red blood cells (RBCs) were washed 3 times in ice-cold PBS (17 mM K/NaH2PO4, 150 mM NaCl). PBS was used for all dilutions. 96-well round-bottom microtiter plates were used for the dilutions. The titer for agglutination was determined in a 2-fold dilution series in PBS of the bacteria in a volume of 25 μL. Well 1 is a negative control without bacteria but 25 μL PBS. 25 μL PBS and 50 μL 5% RBCs were added to a final 100 μL volume. Upon 1 hour at 4° C., the titer was determined as the lowest concentration of bacteria that led to haemagglutination.
# A bacterial concentration of twice the determined haemagglutination titer was kept constant in the haemagglutination inhibition assays. First, a 2-fold dilution series of the inhibitory compounds was performed in 25 μL PBS. Instead, in well 1 only 25 μL PBS was added as a negative control. 25 μL of the bacterial solution and 50 μl of 5% red blood cells were added to reach a final volume of 100 μL.
# [2] = molecular target: T1, monovalent lectin domain of FimH (Escherichia coli, UniProt P08191); type: binding; details: for Kd / Molar ratio n meas / ΔG° / ΔH° / ΔS°: direct titration; for Kd: read-out: Kd
# T1 construct: with the monovalent lectin domain of FimH were measured using isothermal calorimetry (ITC)
# T1 sequence (P08191 22-179): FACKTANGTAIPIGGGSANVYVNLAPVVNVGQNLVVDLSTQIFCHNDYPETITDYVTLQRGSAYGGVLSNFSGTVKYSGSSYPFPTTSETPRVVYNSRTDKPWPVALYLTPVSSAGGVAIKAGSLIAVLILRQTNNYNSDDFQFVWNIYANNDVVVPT
# bladder cell line 5637 = experiment: Anti-adhesives for bacterial bladder cell binding; type: cell-based; details: ten-fold dilution series
# Method: The anti-adhesive capacities of the HM-derivatized cyclodextrins 1-4 were tested in vitro on the bladder cell line 5637, in a procedure analogous as previously described (Wellens, A. et al., PLoS ONE 3: e2040 (2008)). The CD conjugates 1-4 were diluted in a ten-fold series. The minimum inhibitory concentrations (MIC) indicate the concentrations of sugars at which we see some inhibition of binding of FimH to the bladder cells, they do however not indicate complete inhibition. MIC values for the CD-conjugates 1-4 followed a similar trend as the inhibitory concentrations recorded in HIA.
# The anti-adhesive capacities of the n-heptyl α-D-mannoside-derivatized cyclodextrins 1-4 were tested in vitro on the bladder cell line 5637, in a procedure analogous to as described in (Wellens, A. et al., PLoS ONE 3: e2040 (2008)). The ligands have been diluted 10-fold and this is also the resolution limit of these tests.
# [3] = tested on: E. coli strain UTI89 in the bladder of C3H/HeN mice; experiment: In vivo inhibition in the murine cystitis model (instillation with UTI89)
# Method: In vivo inhibition was evaluated by instilling 1-4 together with the UTI89 strain via a catheter in the bladder of C3H/HeN mice. […] A group of ten animals was used for each concentration of antagonists. […] The animals were sacrificed at a 6 h post infection time.
# A murine model of urinary tract infection was used to test the ability of the compounds to inhibit the colonization of UTI89 in the bladder [Hung C. S.; Dodson, K. W., Hultgren S. J. Nat. Protoc. 2009, 4, 1230-1243 and Wellens A.; Garofalo C.; Nguyen H.; Van Gerven N.; Slättegård R.; Hernalsteens, J.-P.; Wyns, L.; Oscarson, S.; De Greve H.; Hultgren S. J.; Bouckaert, J. PLoS ONE 2008, 3, e2040]. The solution with high concentration of compounds was added to the resuspension of UTI89 before given to the mice. The eight-week old Female C3H/HeN mice (Harlan, Horst, The Netherlands) were anesthetized and infected via transurethral catheterization of 10^7 CFU UTI89 in solution in PBS, or in PBS with the compound in the mentioned concentration. The mice were sacrificed at 24 hours post infection and the bladders were harvested, homogenized and resuspended in PBS. The serial dilutions were spot on LB medium agar plates. The bacterial load was determined by counting the CFU recovered from the bladder. The animal experiments were approved by the Ethical Committer for Animal Experiments of Vrije Universiteit Brussel and complied with all relevant national legislation and institutional policies. The Mann-Whitney test was applied for the comparison of the data obtained from the untreated group and inhibition group in GraphPad Prism version 5.1 and two tailed P value were shown (GraphPad software).
# A limited number of papers described the in vivo efficiency of anti-adhesive mannosides to treat UTIs.
# [4] = tested on: AIEC LF82 strain adhesion to T84 intestinal epithelial cells; experiment: Adhesion assay on T84 cells, cells incubated 1 h with mannoside prior infection (Example 21.1); type: cell-based, Escherichia coli
# Method: (§1) E. coli strain LF82 was isolated from a chronic ileal lesion of a patient with Crohn's disease (CD). Bacteria were grown routinely in Luria-Bertani (LB) broth overnight at 37° C. Intestinal epithelial cells T84 derived from colonic adenocarcinoma were maintained in an atmosphere containing 5% CO2 at 37° C. in DMEM/F12 (50/50) medium supplemented with 10% (v/v) heat-inactivated fetal calf serum (FCS), 1% L-glutamine, 100 000 U·l^−1 penicillin, 100 mg·l^−1 streptomycin, 25 μg·l^−1 amphotericin B.
# T84 cells were seeded in 48-well tissue culture plates with 1.5×10^5 cells per well and grown for 48 h. Cells were incubated 1 h prior infection with each mannoside at a final concentration of 100; 10; 1 or 0.1 μM in complete medium without antibiotics, containing heat inactivated fetal calf serum (FCS) and were next infected with AIEC LF82 strain at a multiplicity of infection (MOI) of 10 bacteria per cell. After a 3 h incubation period at 37° C., the monolayers were washed in phosphate-buffered saline (PBS; pH 7.2). The epithelial cells were then lysed with 1% Triton X-100 in deionized water. Samples were diluted and plated onto Luria Bertani agar plates to determine the number of cfu recovered from the lysed monolayers.
# Results were expressed in percentage of residual adhesion, considering adhesion level of AIEC LF82 without mannoside treatment as 100%.
# [5] = tested on: AIEC LF82 bacteria adhesion to T84 intestinal epithelial cells; experiment: Adhesion assay on T84 cells, pre-, co- and post-incubation protocols (Example 21.2); type: cell-based, Escherichia coli
# Method: as §1
# T84 were seeded in 48-well plates at a concentration of 1.5×10^5 cells per well and grown for 48 h. AIEC LF82 bacteria were incubated 1 h with each mannoside prior the cell infection (pre-incubation protocol) or they were added simultaneously onto the cells (co-incubation protocol) in complete medium without antibiotics, containing heat inactivated fetal calf serum (FCS). Heptyl-mannose or compound 2 (example 1) were tested at a dose of 100; 10; 1 or 0.1 μM. D-D-mannose was tested at a dose of 10 000; 1 000; 100 or 10 μM and compound 1 (example 2bis) was tested at a concentration of 500; 100; 10 or 1 μM. Cells were infected with AIEC LF82 bacteria at a multiplicity of infection (MOI) of 10 bacteria per cell for 3 h at 37° C. For the post-incubation protocol, mannosides were incubated with cells for 3 h after bacterial infection. A washing step was realized before this post-incubation to eliminate non-adherent bacteria. Monolayers were washed in phosphate-buffered saline (PBS; pH 7.2) and cells were then lysed with 1% Triton X-100 in deionized water. Samples were diluted and plated onto Luria Bertani agar plates to determine the number of colony-forming units (CFU) recovered from the lysed monolayers. Results were expressed as percentages of residual adhesion, considering adhesion level of AIEC LF82 without mannoside treatment as 100%.
# [6] = tested on: AIEC LF82 bacteria in colonic loops of CEABAC10 mice expressing human CEACAM6; experiment: Adhesion assay in colonic loops of CEABAC10 mice; type: in vivo; details: dose of 0.1 μmol, 4 h incubation
# Method: E. coli strain LF82 was isolated from a chronic ileal lesion of a patient with Crohn's disease (CD). Bacteria were grown routinely in Luria-Bertani (LB) broth overnight at 37° C.
# The transgenic mouse model CEABAC10 expressing the human CEACAM6 protein is available in the UMR Inserm/Université d'Auvergne 1071 led by Professor Arlette Darfeuille-Michaud at Clermont-Ferrand. This model is particularly suitable to reproduce the abnormal colonization by AIEC bacteria through the interaction with CEACAM6 molecules that were observed abnormally expressed in the ileal mucosa of Crohn's disease patients.
# Three colonic loops were realized in anesthetized CEABAC10 mice. A volume of 100 μl of a bacterial suspension containing 6×10^6 bacteria/mL with or without inhibitory compound was injected into the loops (here, compound 2, example 1) or heptyl-mannose at a concentration of 100 μM). After an incubation period of 4 h, mice were euthanized and each loop was longitudinally opened, extensively washed and homogenized to numerate adherent LF82 bacteria. Bacterial adhesion was expressed as percentages of residual adhesion (100% corresponds to the adhesion in absence of any compound).
# [7] = excluding spiky heat signals (2)
smiles,measurement,setting,value
OC[C@H]1O[C@H](OCCCCCCCOCc2cn(C[C@H]3O[C@@H]4O[C@H]5[C@H](O)[C@@H](O)[C@@H](O[C@H]6[C@H](O)[C@@H](O)[C@@H](O[C@H]7[C@H](O)[C@@H](O)[C@@H](O[C@H]8[C@H](O)[C@@H](O)[C@@H](O[C@H]9[C@H](O)[C@@H](O)[C@@H](O[C@H]%10[C@H](O)[C@@H](O)[C@@H](O[C@H]3[C@H](O)[C@H]4O)O[C@@H]%10CO)O[C@@H]9CO)O[C@@H]8CO)O[C@@H]7CO)O[C@@H]6CO)O[C@@H]5CO)nn2)[C@@H](O)[C@@H](O)[C@@H]1O [Compound 1],MIC,[1]; UTI89 1.2 10^9 CFU/ml,>200 µM
same,MIC,[1]; UTI89 1.4 10^8 CFU/ml,100 µM
same,MIC,[1]; UTI89 7 10^7 CFU/ml,63 µM
same,Affinity of FimH for the ligand (in words),[2]; ITC,micromolar range
same,Kd,[2]; data processed to exclude spiky heat signals (2),625 nM
same,Kd,[2]; data processed to include the whole binding event (1),1640 nM
same,Molar ratio n meas,[2]; [7],0.36
same,ΔG°,[2]; [7],-8.4 kcal/mol
same,ΔH°,[2]; [7],-5.6 kcal/mol
same,ΔS°,[2]; [7],9.7 cal/mol/deg
same,Molar ratio n meas,[2]; whole binding event (1),0.35
same,ΔG°,[2]; whole binding event (1),-7.8 kcal/mol
same,ΔH°,[2]; whole binding event (1),-7.2 kcal/mol
same,ΔS°,[2]; whole binding event (1),2.2 cal/mol/deg
same,"MIC, anti-adhesive potency on bladder cell line 5637",bladder cell line 5637,>400000 nM
same,Inhibition efficiency at decreased concentration,[3]; 0.1 mM,important drop in the inhibition efficiency
same,Reduction of the level of infection,[3]; instillation of 1 mM with UTI89,10 fold
same,Concentration reaching around 75% of binding inhibition (25% line),[4],500 µM
same,Bacteria adherent to intestinal epithelial cells eliminated,"[5]; post-incubation, 500 μM",≤ 40%
same,Concentration leading to decreased adhesion levels of at least 50%,[5]; pre-incubation assay,500 µM
"CCCCCCCO[C@H]1O[C@H](CO)[C@@H](O)[C@H](O)[C@@H]1O [heptyl-mannoside, Heptyl α-D-mannoside, reference compound]",Bacterial adhesion in colonic loops compared with no inhibitor,[6],did not decrease significantly
